Experimental data reported in patent publication US20230212549A1, “COMPOUNDS COMPRISING A […] LIGAND AND USE THEREOF” (priority 2021, published 2023).
Numbered stars: 1 amine (or outer) side, 2 acyl side, 3 side chain; on linkers, the order of the positions; unused ones are H or OH. Bridge positions count the residues as written; N and C are the ends. Square brackets hold non-standard residues; d marks the D form. Peptide text beside a SMILES is read from it. * marks the point of attachment. ξ: configuration not given here. X7 = O=C(CCP(=O)(O)CN1CCN(CP(=O)(O)CO)CCN(CP(=O)(O)CO)CC1)NCCSCc1cc(C[*:1])cc(C[*:2])c1; CO = O=C([*:1])[*:2]; ξC = NC(CS)C(=O)O; NHBu = CCCCN*

How the values were obtained:
[1] = target: T1, FAP-expressing human WI-38 fibroblasts (Homo sapiens, UniProt Q12884); test: Competitive FACS binding assay
T1 construct: FAP-expressing human WI-38 fibroblasts (ECACC) were cultured in EMEM; host or cells: WI-38 human fibroblasts
Procedure: Cells were analyzed in an Attune NxT flow cytometer. […] […].
Cells were analyzed in an Attune NxT flow cytometer. […]

[2] = Radiochemical purity by HPLC of ^99mTc-labeled compounds; format: physicochemical; details: 99Tc-labeled compounds; for HPLC Area % appr. 4 h post end of synthesis: (3 h)
Procedure: 100-500 MBq of ^99mTcO4 (in saline) were mixed with 11 μl of 0.5 M phosphate buffer pH 11.5-12.0 and 1.1 μl of 0.1 M trisodium citrate per 100 μl radionuclide solution. […] The mixture was incubated for 30 min at 25-50′° C. At the end of the incubation time, the mixture was neutralized with 3.0 μl 1 M HCl per 10 μl phosphate buffer and TWEEN-20 was added at a final concentration of 0.100.

in vivo [3] = details: swiss nude, mouse, iv
Human recombinant FAP [4] = target: T2, Human recombinant FAP (Homo sapiens, UniProt Q12884); test: FRET-based FAP protease activity assay; format: biochemical; design: purchased R&D systems 3715-SE
Human recombinant FAP [5] = target: T2, Human recombinant FAP; test: Surface plasmon resonance (Biacore) assay; format: binding
in vivo [6] = details: female, athymic nude, mouse, iv
[7] = pIC50 Category (Activity), FRET-peptide substrate, 37° C.
[8] = pIC50 Category (activity), Recombinant human FAP
[9] = blood pool surrogate (BPS), uptake BPS 0.25 h, ^68Ga-labeled, BPS (blood pool surrogate), PET/CT, 0.25 h post tracer injection
[10] = blood pool surrogate (BPS), uptake BPS 1 h, ^68Ga-labeled, BPS (blood pool surrogate), PET/CT, 1 h post tracer injection
[11] = blood pool surrogate (BPS), uptake BPS 3 h, ^68Ga-labeled, BPS (blood pool surrogate), PET/CT, 3 h post tracer injection
[12] = kidneys, uptake Kidneys 0.25 h, ^68Ga-labeled, PET/CT, 0.25 h post tracer injection
[13] = kidneys, uptake Kidneys 1 h, ^68Ga-labeled, PET/CT, 1 h post tracer injection
[14] = kidneys, uptake Kidneys 3 h, ^68Ga-labeled, PET/CT, 3 h post tracer injection
[15] = tumor, uptake Tumor 0.25 h, ^68Ga-labeled, HEK-FAP tumor, PET/CT, 0.25 h post tracer injection
[16] = tumor, uptake Tumor 1 h, ^68Ga-labeled, HEK-FAP tumor, PET/CT, 1 h post tracer injection
[17] = tumor, uptake Tumor 3 h, ^68Ga-labeled, HEK-FAP tumor, PET/CT, 3 h post tracer injection

T1 sequence (Q12884 whole entry): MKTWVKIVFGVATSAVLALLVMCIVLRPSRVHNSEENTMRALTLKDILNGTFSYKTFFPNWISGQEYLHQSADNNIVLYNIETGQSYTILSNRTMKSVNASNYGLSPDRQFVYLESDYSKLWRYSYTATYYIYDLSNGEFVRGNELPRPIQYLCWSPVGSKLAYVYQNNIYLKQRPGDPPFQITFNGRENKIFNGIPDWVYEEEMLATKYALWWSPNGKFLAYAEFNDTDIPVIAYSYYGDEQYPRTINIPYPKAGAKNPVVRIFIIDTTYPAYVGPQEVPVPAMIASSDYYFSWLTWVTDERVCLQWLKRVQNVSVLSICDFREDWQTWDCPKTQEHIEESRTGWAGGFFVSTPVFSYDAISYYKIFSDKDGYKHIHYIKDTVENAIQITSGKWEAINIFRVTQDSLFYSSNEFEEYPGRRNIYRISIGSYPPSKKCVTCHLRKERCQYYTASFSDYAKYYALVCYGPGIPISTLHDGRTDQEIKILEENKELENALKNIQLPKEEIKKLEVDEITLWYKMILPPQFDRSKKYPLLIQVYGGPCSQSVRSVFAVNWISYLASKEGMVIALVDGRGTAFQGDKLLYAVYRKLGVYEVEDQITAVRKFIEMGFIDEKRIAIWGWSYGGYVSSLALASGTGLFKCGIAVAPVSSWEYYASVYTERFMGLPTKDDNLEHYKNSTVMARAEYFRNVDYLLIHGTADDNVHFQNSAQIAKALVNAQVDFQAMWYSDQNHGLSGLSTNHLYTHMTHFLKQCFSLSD
T2 sequence (Q12884 whole entry): as above

SMILES	IC50 [1] [nM]	HPLC Area % at end of synthesis [2] [%]	HPLC Area % appr. 4 h post end of synthesis [2] [%]	tissue uptake at 1 h (in vivo [3]; blood pool surrogate (BPS)) [%ID/g]	tissue uptake at 3 h (in vivo [3]; blood pool surrogate (BPS)) [%ID/g]	tissue uptake at 6 h (in vivo [3]; blood pool surrogate (BPS)) [%ID/g]	tissue uptake at 1 h (in vivo [3]; kidneys) [%ID/g]	tissue uptake at 3 h (in vivo [3]; kidneys) [%ID/g]	tissue uptake at 6 h (in vivo [3]; kidneys) [%ID/g]	tissue uptake at 1 h (in vivo [3]; tumor) [%ID/g]	tissue uptake at 3 h (in vivo [3]; tumor) [%ID/g]	tissue uptake at 6 h (in vivo [3]; tumor) [%ID/g]	IC50 (Human recombinant FAP [4]; [7]) [nM]	Kd (Human recombinant FAP [5]) [nM]	IC50 (Human recombinant FAP [4]; [8]) [nM]	tissue uptake at 0.25 h (in vivo [6]; [9]) [%ID/g]	tissue uptake at 1 h (in vivo [6]; [10]) [%ID/g]	tissue uptake at 3 h (in vivo [6]; [11]) [%ID/g]	tissue uptake at 0.25 h (in vivo [6]; [12]) [%ID/g]	tissue uptake at 1 h (in vivo [6]; [13]) [%ID/g]	other results
CCCCNC(=O)N[C@H]1CSCc2cc(cc(CN3CCN(C(=O)C(CNCCN)CNCCN)CC3)c2)CSC[C@@H](C(=O)O)NC(=O)[C@H](Cc2ccccc2)NC(=O)[C@H](CCC(N)=O)NC(=O)[C@H]([C@@H](C)O)NC(=O)[C@@H]2CCCN2C(=O)[C@@H]2CCCN2C1=O [3BP-4533, nBu-CAyl-[Cys(tMeBn(N4Ac-PP))-Pro-Pro-Thr-Gln-Phe-Cys]-OH]	< 10	99.3	98.2	1.72	1.46	0.86	6.04	4.43	3.04	5.45	6.27	6.75	< 10								
CCCCNC(=O)N[C@H]1CSCc2cc(CSCCNC(=O)C(CNCCN)CNCCN)cc(c2)CSC[C@@H](C(=O)O)NC(=O)[C@H](Cc2ccccc2)NC(=O)[C@H](CCC(N)=O)NC(=O)[C@H]([C@@H](C)O)NC(=O)[C@@H]2CCCN2C(=O)[C@@H]2CCCN2C1=O [3BP-4534, nBu-CAyl-[Cys(tMeBn(N4Ac-AET))-Pro-Pro-Thr-Gln-Phe-Cys]-OH]	< 10	98.6	97.5	1.7	1.19	0.78	2.06	1.4	1.09	5.67	6.85	7.68	< 10								
CCCCNC(=O)N[C@H]1CSCc2cc(CSCCNC(=O)CCP(=O)(O)CN3CCN(CP(=O)(O)CO)CCN(CP(=O)(O)CO)CC3)cc(c2)CSCC(C(=O)O)NC(=O)[C@H](Cc2ccccc2)NC(=O)[C@H](CCC(=O)O)NC(=O)[C@H]([C@@H](C)O)NC(=O)[C@@H]2CCCN2C(=O)[C@@H]2CCCN2C1=O (stereo partly drawn) [3BP-4778, nBu-CAyl-[Cys(tMeBn(NOPO-AET))-Pro-Pro-Thr-Glu-Phe-Cys]-OH] ({NHBu-CO}-CPPTEF[ξC]-OH; linker 1-7 via X7)	< 10													< 10	< 10	1.61	0.77	0.33	3.38	1.81	tissue uptake at 3 h (in vivo [6]; [14]): 1 %ID/g; tissue uptake at 0.25 h (in vivo [6]; [15]): 3.66 %ID/g; tissue uptake at 1 h (in vivo [6]; [16]): 4.06 %ID/g; tissue uptake at 3 h (in vivo [6]; [17]): 4.45 %ID/g
CCCC[C@H](NC(=O)CCC(=O)NCCCOCCOCCOCCCNC(=O)CN1CCN(CC(=O)O)CCN(CC(=O)O)CC1)C(=O)N[C@H]1CSCc2cccc(c2)CSCC(C(=O)O)NC(=O)[C@H](Cc2ccccc2)NC(=O)[C@H](CCC(N)=O)NC(=O)[C@H]([C@@H](C)O)NC(=O)[C@@H]2CCCN2C(=O)[C@@H]2CCCN2C1=O (stereo partly drawn) [3BP-5201, NOTA-Ttds-Nle-[Cys(3MeBn)-Pro-Pro-Thr-Gln-Phe-Cys]-OH]	< 10													< 10	10 to 79.4						tissue uptake at 0.25 h (in vivo [6]; blood pool surrogate (BPS)): 2.31 %ID/g; tissue uptake at 1 h (in vivo [6]; blood pool surrogate (BPS)): 0.85 %ID/g; tissue uptake at 3 h (in vivo [6]; blood pool surrogate (BPS)): 0.38 %ID/g; tissue uptake at 0.25 h (in vivo [6]; kidneys): 9.27 %ID/g; tissue uptake at 1 h (in vivo [6]; kidneys): 1.97 %ID/g; tissue uptake at 3 h (in vivo [6]; kidneys): 1 %ID/g; tissue uptake at 0.25 h (in vivo [6]; tumor): 5.56 %ID/g; tissue uptake at 1 h (in vivo [6]; tumor): 6.3 %ID/g; tissue uptake at 3 h (in vivo [6]; tumor): 6.25 %ID/g
CCCCNC(=O)N[C@H]1CSCc2cc(CSCCNC(=O)CCP(=O)(O)CN3CCN(CP(=O)(O)CO)CCN(CP(=O)(O)CO)CC3)cc(c2)CSCC(C(=O)O)NC(=O)[C@H](Cc2ccccc2)NC(=O)[C@H](CCC(N)=O)NC(=O)[C@H]([C@@H](C)O)NC(=O)[C@@H]2CCCN2C(=O)[C@@H]2CCCN2C1=O (stereo partly drawn) [3BP-4768, nBu-CAyl-[Cys(tMeBn(NOPO-AET))-Pro-Pro-Thr-Gln-Phe-Cys]-OH]	< 10													< 10	< 10	2.54	0.78	0.27	18.4	2.45	tissue uptake at 3 h (in vivo [6]; [14]): 0.67 %ID/g; tissue uptake at 0.25 h (in vivo [6]; [15]): 7.82 %ID/g; tissue uptake at 1 h (in vivo [6]; [16]): 9.42 %ID/g; tissue uptake at 3 h (in vivo [6]; [17]): 9.2 %ID/g
